# pEC50, pIC50: −log10 of the molar value. Activity calls are given as the source filed them. No cut-off for these calls is given here.
# Key:
# [1] = target: T1, Human immunodeficiency virus type 1 reverse transcriptase (Human immunodeficiency virus 1, UniProt Q72547); assay: Inhibition of HIV1 recombinant wild type reverse transcriptase p66/p51 using dsDNA by microplate reader based assay
# [2] = test system: Human immunodeficiency virus 1; assay: Antiviral activity against HIV1 3B acutely infected in human MT4 cells assessed as inhibition of virus-induced cytopathogenic effect after 5 days by MTT assay; format: functional, organism-based; conditions: Human immunodeficiency virus 1, 3B, MT4, 120 h
# [3] = test system: Human immunodeficiency virus 2; assay: Antiviral activity against HIV2 ROD acutely infected in human MT4 cells assessed as inhibition of virus-induced cytopathogenic effect after 5 days by MTT assay; format: functional, organism-based; conditions: Human immunodeficiency virus 2, ISOLATE ROD, MT4, 120 h
# [4] = Cytotoxicity against mock-infected human MT4 cells after 5 days by MTT assay; format: cell-based
# [5] = target: T2, Protein Tat (Human immunodeficiency virus type 1 group M subtype B (isolate HXB2)(HIV-1)) (UniProt P04608); assay: Inhibition of HIV1 Tat-mediated transactivation of HIV1 long terminal repeat in human HeLa cells after 24 hrs by LTR driven luciferase reporter assay; format: cell-based; conditions: Human immunodeficiency virus 1
# T2 sequence (whole entry): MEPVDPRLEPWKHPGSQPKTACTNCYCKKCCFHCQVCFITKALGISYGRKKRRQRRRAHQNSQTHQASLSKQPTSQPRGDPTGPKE
# HeLa = assay: Cytotoxicity against human HeLa cells at 10 uM to 200 uM after 24 hrs; format: cell-based
# [6] = Selectivity index, ratio of CC50 for human OM10.1 cells to IC50 for HIV1 latently infected in human OM10.1 cells; format: functional
# [7] = test system: Human immunodeficiency virus 1; assay: Antiviral activity against HIV1 latently infected in PMA-stimulated human OM10.1 cells assessed as reduction in p24 antigen levels pre-incubated for 2 hrs with host cells followed by 2 day incubation; format: functional, organism-based
# [8] = Cytotoxicity against human OM10.1 cells by MTT assay; format: cell-based
# [9] = target: T1, Human immunodeficiency virus type 1 reverse transcriptase; assay: Inhibition of HIV reverse transcriptase
pIC50 [1],inhibition [5],pIC50 [9],Structure (SMILES),pEC50 [2],pEC50 [3],CC50 at 120 h [4] [µM],Activity (HeLa),Ratio CC50/IC50 [6],pEC50 [7],CC50 [8] [µM]
4.13,inactive,–,CCN1c2ncccc2NC(=O)c2cc(NCCNc3cc4c(cc3N)c(=O)c(C(=O)O)cn4C)cnc21,< 3.70,< 3.70,> 200,–,–,–,–
5.08,Dose-dependent effect,–,CCN1c2ncccc2NC(=O)c2ccc(N3CCN(c4cc5c(cc4N)c(=O)c(C(=O)O)cn5C)CC3)nc21,< 4.63,< 4.63,23.5,Non-toxic,4,5.29,18.4
4.83,inactive,–,CCN1c2ncccc2NC(=O)c2cc(N3CCN(c4cc5c(cc4N)c(=O)c(C(=O)O)cn5C)CC3)cnc21,< 4.59,< 4.59,25.7,–,–,–,–

# The next lines start with the compound.
Structure (SMILES),pIC50 [1],inhibition [5],pIC50 [9],pEC50 [2],pEC50 [3],CC50 at 120 h [4] [µM],Activity (HeLa),Ratio CC50/IC50 [6],pEC50 [7],CC50 [8] [µM]
CCN1c2ncc(CCOc3cc[n+]([O-])c4ccccc34)cc2C(=O)N(C)c2cccnc21 [BILR 355],–,–,7.77,–,–,–,–,–,–,–
Cn1cc(C(=O)O)c(=O)c2cc(N)c(N3CCN(c4ccccn4)CC3)cc21,3.10,–,–,6.82,6.60,–,–,–,7.12,31.2
Cc1ccnc2c1NC(=O)c1cccnc1N2C1CC1 [NEVIRAPINE],–,–,–,–,< 4.82,> 15,–,–,–,–

# From ChEMBL document CHEMBL3352607, “Exploiting the anti-HIV 6-desfluoroquinolones to design multiple ligands” (Bioorg Med Chem, 2014)
